Assays:
[1] = Safety and tolerability observed in the informal trials of topical ivermectin; assay type: in vivo, human; conditions: informal clinical trial, topical application, any body locations
Excerpt: It is known that some of the diseases, such as perioral dermatitis, the skin on the eyelids can be affected. To treat eyelids, a high concentration of the medicine should be avoided to prevent irritation of the eyes.
(§1) Examples 4 to 12 illustrate clinical effectiveness of the method of the present invention.

[2] = tested on: transient acantholytic dermatitis, acne miliaris necrotica, acne varioliformis, perioral dermatitis, acneiform eruptions, acne vulgaris, seborrheic dermatitis; test: Informal clinical trial of topical ivermectin across the dermatological conditions; assay type: in vivo, human
Excerpt: In a preferred embodiment, ivermectin is used because it is readily available commercially. The concentration of ivermectin in the dermatological composition for the purpose of the present invention can be in a broad range from about 0.05% to 8% weight by volume (w/v).
The treatment method using ivermectin dermatological composition for each of these dermatological conditions is similar. Preferably, in an initial treatment of these dermatological conditions the ivermectin dermatological composition can be applied topically from one to several times daily for a period of from about one week to several weeks, to substantially control the condition and clear the lesions. The initial dosage, including frequency of the topical application, ivermectin concentration of the dermatological composition, and the length of the initial treatment period can be determined depending on a specific disease, severity of the disease, and the response of the patient to the medication. For example, acne miliaris necrotica is more difficult to treat, and it frequently requires an initial treatment of three weeks or longer. While perioral dermatitis patients can respond to ivermectin treatment rapidly, and healing of lesions can occur in less than two weeks. After the initial treatment, a maintenance dosage, that has less frequent application, and/or a dermatological composition with less concentration of ivermectin, can be used for maintaining the condition.
as §1

[3] = tested on: head lice; conditions: after a single topical application; cited from earlier work
[4] = oral dosage of a moderate ivermectin concentration; cited from earlier work
[5] = informal clinical trial, topical application to affected skin

**Q.** Which side effects [1] does the source give for ivermectin here?
**A.** no side effects observed in any body locations

**Q.** What about the “dermal infection of the affected area” value [2, 5] of the same substance?
**A.** controls dermal infection of the affected area

**Q.** And the “inflammation of the affected area” value [2, 5]?
**A.** controls inflammation of the affected area

**Q.** And the “itching and skin irritation caused by the conditions” value [2, 5]?
**A.** removes itching and skin irritation

**Q.** And the lesions [2, 5]?
**A.** clears up lesions

**Q.** And the clinical effectiveness ([2]; lotion or cream, ivermectin concentration as low as 0.075%)?
**A.** clinically effective

**Q.** And the “curative effect on head lice” value [3]?
**A.** absolute curative effect

**Q.** What about the safety in human [4] of the same substance?
**A.** safe in human, without serious adverse side effects

Source: patent publication US7897559B2, “Dermatological composition and kit containing avermectin compound for treating dermatological conditions” (priority 2000, dated 2011)
